Where two headings read alike, the source gives them in different places.
How the values were obtained:
hrMAO-B = target: T1, hrMAO-B (Homo sapiens, UniProt P27338); experiment: Inhibition of monoamine oxidase B (Amplex UltraRed, tyramine); type: biochemical; conditions: for Selectivity Index (MAO-A/MAO-B): ratio IC50 MAO-A/IC50 MAO-B
T1 construct: purchased Sigma–Aldrich
T1 sequence (P27338 1-520): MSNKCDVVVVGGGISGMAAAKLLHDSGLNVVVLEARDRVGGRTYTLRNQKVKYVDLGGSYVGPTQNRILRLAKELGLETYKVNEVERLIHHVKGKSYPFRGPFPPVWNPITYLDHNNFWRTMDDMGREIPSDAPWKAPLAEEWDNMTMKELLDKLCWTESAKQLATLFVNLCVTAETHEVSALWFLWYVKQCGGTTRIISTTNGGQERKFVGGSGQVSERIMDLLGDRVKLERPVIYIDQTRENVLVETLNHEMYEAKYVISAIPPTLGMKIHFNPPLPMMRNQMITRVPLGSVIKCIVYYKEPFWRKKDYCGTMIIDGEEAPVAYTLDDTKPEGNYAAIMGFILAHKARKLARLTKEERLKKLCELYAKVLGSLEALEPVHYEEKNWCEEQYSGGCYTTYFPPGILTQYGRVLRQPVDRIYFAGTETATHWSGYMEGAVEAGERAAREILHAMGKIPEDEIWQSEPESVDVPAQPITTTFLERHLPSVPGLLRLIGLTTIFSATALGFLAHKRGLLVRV

AREc32 = conditions: MTT reduction
Experimental: AREc32 cells, shared by CR Wolf, were grown in Dulbecco’s modified Eagle medium (DMEM) with GlutaMAX (Gibco, Invitrogen, Madrid, Spain), supplemented with 10% (v/v) filtrated fetal bovine serum (FBS; Gibco, Invitrogen, Madrid, Spain), 1% of antibiotics penicillin-streptomycin, and geneticin (0.8 mg/mL G418; Gibco, Invitrogen, Madrid, Spain). […] They were recovered by centrifugation at 800 rpm for 10 min. Cells were used from the third to twelfth passage.
(§1) Basal absorbance was set to 100% and results were normalized to basal conditions.
(§2) Cytotoxicity. LD50 values in several cell cultures employed
(§3) Table S2. Cytotoxicity elicited by 10-18 compounds in SH-SY5Y, AREc32 and mixed pr imary glial cultures. Viability was measured as MTT reduction in presence of increasing concentrations of der ivatives. LD50 values were calcula ted from dose-response curves. Data are expr essed as mean ± SEM of at least 3 independent experiments.
(§4) 1.3. PAMPA control compounds (BBB permeability)
(§5) Table S3. Pr ediction of the BBB passive permeability of control compounds

[1] = Blood–brain barrier permeation assay (PAMPA); conditions: BBB permeability class from Pe
Experimental: (§6) Briefly, permeability of the compounds was measured at an initial concentration of 100 µM, including positive and negative controls (Supplementary Data; Table S3). […] After 5 min, 180 µL of each compound solution in PBS (10 mM, pH 7.4) was added to determine their ability to pass the membrane (VD). The 96-well acceptor plate (Multiscreen, Millipore Corp., Madrid Spain) was loaded with 180 µL of PBS (VA). Then, the donor filter plate was carefully placed on the acceptor plate to form a sandwich-like system, which was left undisturbed for 4 h at room temperature. After incubation, the donor plate was removed and the absorbance at the maximum absorption wavelength for each compound was recorded in both the acceptor and donor wells (150 µL/well) using a UV plate reader SPECTROstar Nano (BMG Labtech, Ortenberg, Germany). Concentration of the compounds in the donor and acceptor plates and equilibrium concentration were calculated and expressed as permeability (Pe) according the Equation (1). Results are expressed as mean ± standard error of the mean (SEM) of at least three different experiments in duplicate:(1) logPe =log{C×−ln(1−[drug]acceptor/[drug]equilibrium)} where C=(VD×VA/(VD +VA)×Area×Time) .

[2] = tested on: blood-brain barrier (passive diffusion); experiment: in vitro; conditions: PAMPA, pH 7.4
Experimental: as §6

[3] = tested on: nitrite production in mixed primary glial cultures; experiment: Nitrite production in LPS stimulated primary mixed glial cultures (Griess); type: cell-based; conditions: Rattus norvegicus; 24 h pre-treatment, LPS 1 µg/mL 18 h; read-out: EC50 Nitrite Reduction
Experimental: Cells were cultured for 7–10 days before treatment.
Primary glial cells were pre-treated with compounds at the desired concentration for 24 h. Then, treatments were removed and glial cells were incubated with lipopolysaccharide (LPS, 1 μg/mL; Sigma–Aldrich, Spain) in the presence of each compound at the desired concentration for 18 h. Nitrite production was then assessed by modified Griess assay. Briefly, 150 µL of each sample was mixed with 75 µL of 4,4′-diamino-diphenylsulfone (Dapsone) and 75 µL of N-(1-naphthyl)ethylenediamine (Neda). The mixture was incubated at room temperature for 5 min. […] Data were normalized to basal conditions, setting this value as 100% of nitrite production. EC50 values were calculated from dose–response curves obtained from representing percentage of nitrites reduction vs. compound concentration.

SH-SY5Y = conditions: MTT reduction
Experimental: They were recovered by centrifugation at 800 rpm for 10 min. Cells from the third to twelfth passage were seeded at a density of 80,000 cells/well in 96-well plates for the neuroprotection studies.
as §1, §2, §3, §4, §5

MAO-B = target: T2, MAO-B (Homo sapiens, UniProt P27338); experiment: MAO-B reversibility assay (pre-incubation times); type: biochemical; conditions: 0, 15, 30 min pre-incubation at […] IC50
T2 construct: purchased Sigma–Aldrich
T2 sequence (P27338 1-520): T1 sequence (P27338 1-520)

[4] = tested on: blood-brain barrier (passive diffusion); experiment: Blood–brain barrier permeation assay (PAMPA); conditions: PAMPA, pH 7.4
Experimental: as §6

[5] = tested on: HMOX1 and GCLC in MEF cells; experiment: Western blot of NRF2-dependent proteins in WT and NRF2 KO MEF cells; type: cell-based, mouse; conditions: 10 µM, 8 or 16 h
Experimental: Cell samples were lysed in ice-cold AKT lysis buffer (137 mM of NaCl, 20 mM of NaF, 10% glycerol, 20 mM of Tris–HCl, 1% Nonidet P-40, 1 μg/mL of leupeptin, 1 mM of phenylmethylsulfonylfluoride, 1 mM of sodium pyrophosphate, and 1 mM of Na3VO4, pH 7.5). Protein quantification was performed using the Pierce BCA Protein Assay Kit (ThermoFisher, Madrid, Spain) following manufacturer’s instructions. Then, 30 μg of protein were resolved by sodium dodecyl sulfate-polyacrylamide gel electrophoresis (SDS-PAGE) and transferred to Immobilon-P polyvinylidene difluoride (PVDF) membranes (Millipore Corp.). Membranes were activated with methanol and blocked with 4% bovine serum albumin (BSA) in Tris-buffered saline-Tween (TTBS: 10 mM of Tris, 150 mM of NaCl; 0.2% Tween-20, pH 7.4) for 2 h. After that, membranes were incubated overnight at 4 °C with the corresponding primary antibodies: anti–HMOX1 (1:1000, ab68477, Abcam, Cambridge, UK), anti-glutamate-cysteine ligase catalytic subunit (GCLC, 1:1000, ab41463, Abcam), anti-β-actin (1:50,000, A3854, Sigma–Aldrich, Madrid, Spain). […] Band intensities from specific proteins were analyzed with Fiji software.

[6] = 30 min pre-incubation, 37 °C, read-out: IC50 MAO-B

For `C#CCNCCc1c[nH]c2ccc(OC)cc12` [Compound 10, N-(2-(5-Methoxy-1H-indol-3-yl)ethyl)prop-2-yn-1-amine], the IC50 (hrMAO-B) was 77.6 ± 9.1 µM, the MAO isozyme selectivity (hrMAO-B; MAO-B vs MAO-A) was “MAO-A selectivity” and the “Selectivity Index (MAO-A/MAO-B)” value (hrMAO-B) was 0.0106. For the same compound, the “LD50 (µM) AREc32” value (AREc32) was over 30 µM, the “PAMPA Prediction” value [1] was “CNS + (CNS + (high BBB permeability): Pe (10^−6 cm s^−1) > 4.0)” and the Papp [2] was 12.3 ± 0.62 ×10⁻⁶ cm/s. It also gave an EC50 [3] of 16.2 ± 2.5 µM.
With `C#CCN(CC#C)CCc1c[nH]c2ccc(OC)cc12` [Compound 13, N-(2-(5-Methoxy-1H-indol-3-yl)ethyl)-N-(prop-2-yn-1-yl)prop-2-yn-1-amine] the IC50 (hrMAO-B) was 89.1 ± 4.3 µM, the “Selectivity Index (MAO-A/MAO-B)” value (hrMAO-B) was over 1.12 and the “LD50 (µM) AREc32” value (AREc32) was over 30 µM. For the same compound, the “PAMPA Prediction” value [1] was “CNS + (CNS + (high BBB permeability): Pe (10^−6 cm s^−1) > 4.0)”, the Papp [2] was 20.3 ± 7.5 ×10⁻⁶ cm/s and the EC50 [3] was 12.6 ± 0.53 µM.
In the case of `C#CCN(CC#C)CCc1c[nH]c2ccc(OC(=O)C=Cc3ccccc3)cc12` [Compound 14, 3-(2-(Di(prop-2-yn-1-yl)amino)ethyl)-1H-indol-5-yl Cinnamate], the “LD50 (µM) SH-SY5Y” value (SH-SY5Y) is reported as 66.5 ± 9.8 µM, the IC50 (hrMAO-B; [6]) is reported as 17 ± 1.6 µM and the MAO-B inhibition reversibility (MAO-B) is reported as “reversible inhibition”. The “LD50 (µM) AREc32” value (AREc32) was over 30 µM, the “PAMPA Prediction” value [1] was “CNS + (CNS + (high BBB permeability): Pe (10^−6 cm s^−1) > 4.0)” and the Papp at 4 h, 100 µM [4] was 4.15 ± 1.8 ×10⁻⁶ cm/s. The “HMOX1 and GCLC protein levels in NRF2 KO MEF cells” value [5] was “not able to increase”, the “HMOX1 and GCLC protein levels in WT MEF cells” value [5] was “increased” and the EC50 [3] was 19.4 ± 1.4 µM.
In the case of `C#CCN(CC#C)CCc1c[nH]c2ccc(OC(=O)/C=C/c3ccc(C)cc3)cc12` [Compound 15, 3-(2-(Di(prop-2-yn-1-yl)amino)ethyl)-1H-indol-5-yl-(E)-3-(p-tolyl) Acrylate], the “LD50 (µM) SH-SY5Y” value (SH-SY5Y) is reported as 48.3 ± 6.6 µM, the IC50 (hrMAO-B; [6]) is reported as 28.1 ± 0.6 µM and the “LD50 (µM) AREc32” value (AREc32) is reported as over 30 µM. For the same compound, the “PAMPA Prediction” value [1] was “CNS + (CNS + (high BBB permeability): Pe (10^−6 cm s^−1) > 4.0)”, the Papp at 4 h, 100 µM [4] was 4.46 ± 1.9 ×10⁻⁶ cm/s and the EC50 [3] was 22.9 ± 3.3 µM.
